Test results from patent US6265445A, “Antiarrhythmic compounds” (priority 1997, dated 2001).
Like-named read-outs stand apart in the source and are kept apart here.

Assays:
mice = test: in vivo
Experimental: (§1) Determination of the LD50 Value on Mice
(§2) Animal: male CDI mice (starved) weighing 20 to 22 g each at the time of treatment.
(§3) Observation period: 2 weeks.
(§4) Vehicle: 1 to 2% of Tween-80 in distilled water or in physiological saline, respectively.
(§5) Treatment volume 0.1 ml/10 g of body-weight.

in vivo = details: mouse, in vivo
Experimental: as §1, §2, §3, §4, §5

[1] = test system: occlusion and reperfusion arrhythmias in anaesthetized dogs; test: Occlusion and reperfusion arrhythmias following acute coronary ligation in anaesthetized dogs; type: in vivo, mongrel dogs
Experimental: The method used is essentially in agreement with the method of Vegh et al. [Basic Res. Cardiol. 82, 159-171 (1987)].
Mongrel dogs of both sexes weighing 10 to 20 kg each were anaesthetized by a mixture of chloralose (60 mg/kg) and urethane (200 mg/kg) and the animals were maintained on artificial respiration. After opening the chest, the ramus descendens anterior (LAD) branch of the left coronary artery of heart was prepared from the first main collateral branch and a loose loop from surgical thread was placed around it. During our experiments, the blood pressure of the animal was measured by using a cannule introduced to the left femoral artery and even the standard ECG parameters by using needle electrodes were continuously registered. The arrhythmias were induced by the occlusion for 25 minutes of a loop placed round the LAD. The survival after lethal arrhythmias and frequency of the arrhythmias were registered. The 28 dogs used in the experiments were divided into three groups. The compound of Example 15 was administered in a dose of 1 mg/kg to 8 animals; d-sotalol was given in a dose of 3 mg/kg to 10 animals by a single intravenous injection 10 minutes before compression of the coronary vessel. The control dogs (10 animals) received 5 ml of physiological saline solution in the same manner as the treated animals.
By using this method it can be stated whether the substance investigated would be effective for protection against arrhythmias following the ligation of the coronary artery.

[2] = test system: right ventricular papillary muscle of dogs; test: Intracellular microelectrode technique: action potential parameters, ventricular papillary muscle; set-up: species or system mongrel dogs
Experimental: (§6) The method used is essentially in agreement with the method of Papp et al. [J. Cardiovascular Pharmacol. Ther. 1, 287-296 (1996)].
(§7) Right ventricular papillary muscle and Purkinje's fibres were prepared from the hearts of mongrel dogs (weighing 5 to 10 kg each). The preparations were placed into an organ bath (37° C.) containing modified Tyrode's nutrient medium. The preparations were excited by a basal frequency of 1 Hz. During the experiments, the frequency of stimulation was varied under broad limits by a computer-guided stimulator. The intracellular action potentials were registered by using glass capillary microelectrodes filled with 3 N potassium chloride solution (standard intracellular microelectrode techniques). The resting potential (RP), the amplitude of the action potential (APA) as well as the duration of the action potential (APD) were measured by using an IBM 386 compatible computer by means of an own-developed software. The compounds under test were directly added into the organ bath after dilution of the stock solutions according to the final concentrations desired. The effects of the compounds were observed after an incubation time of 30 to 40 minutes.

[3] = test system: isolated right ventricular trabecule of dog heart; test: Extracellular electrophysiological measurements: impulse conduction time and effective refractory period; set-up: species or system mongrel dogs; details: for activation at 2 µM / activation at 10 µM: Canis lupus familiaris
Experimental: Right ventricular trabecules were prepared from the heart of mongrel dogs (weighing 5 to 10 kg each). The surviving heart pieces were placed into an organ bath (37° C.) containing modified Tyrode's nutrient medium and excited by point stimulation with a basal frequency of 1 Hz. Extracellular bipolar platinum electrodes were placed on the surface of the preparations, by means of which the propagation of the superficial potentials were registered; thus, the determination of the time of impulse conduction or the rate of impulse conduction, respectively, and the effective refractory period (ERP) became possible. During our experiments,the frequency of stimulation was temporarily varied from 0.5 Hz up to 3 Hz. The tested compounds were directly added to the organ bath after dilution of the stock solution according to the desired final concentration.

[4] = test system: occlusion and reperfusion arrhythmias in anaesthetized rabbits; test: Occlusion and reperfusion induced arrhythmias following acute coronary artery ligation in anaesthetized rabbits; type: in vivo, male rabbits; details: 0.03 mg/kg
Experimental: The method used is essentially in agreement with the method of Thiemermann et al. [Br. J. Pharmacol. 97, pp. 401-408 (1989)].
A loose surgical thread loop was placed round the left circumflex coronary artery of the heart following thoracotomy in pentobarbital (30 mg/kg i.v.) anaesthetized male rabbits (weighing 2 to 3 kg); both ends of the thread loop were led out from the chest through an elastic tube. Standard electrocardiogram was registered by using needle electrodes under the skin. The blood pressure of animals was continuously measured by using a catheter placed into the common carotid artery. After stabilization of the blood pressure and heart frequency, the loose loop was tightened to establish a regional myocardial ischaemia. After 10 minutes of ischaemia, the ligature was released and a reperfusion for 10 minutes was established. The survival, the incidence of arrhythmias, the time of onset of arrhythmia and the length of episodes were registered. The animals received physiological saline solution (control) intravenously (2 ml/kg) or 0.03 mg/kg of the compound of Example 15 or a 3 mg/kg dose of d-sotalol at 5 minutes before the occlusion.
By using this method, it can be stated whether the compound under test would be effective for the protection from arrhythmias following coronary artery ligation.

[5] = test system: Purkinje's fibres isolated from dog heart; test: Intracellular microelectrode technique: action potential parameters, Purkinje's fibres; set-up: species or system mongrel dogs
Experimental: as §6, §7

[6] = Table 4, ventricular muscle, 5 μM, 1 Hz, N = 6
[7] = 1 Hz, read-out: Prolongation (%) of ERP
[8] = 1 Hz, read-out: Prolongation (%) of impulse conduction time
[9] = 3 Hz, read-out: Prolongation (%) of ERP
[10] = 3 Hz, read-out: Prolongation (%) of impulse conduction time

Cc1cccc(C)c1OCC(C)N(C)CCc1ccc(NS(C)(=O)=O)cc1.Cl (stereo not shown) [Example 15, N-[4-[2-[N-Methyl-N-[2-(2,6-dimethylphenoxy)-1-methylethyl]amino]ethyl]phenyl]methanesulfonamide hydrochloride]
cause of death (mice; i.p.): respiratory paralysis
Mortality (mice; i.p. 150 mg/kg): 1/10
Mortality (mice; i.p. 175 mg/kg): 7/10
Mortality (mice; i.p. 200 mg/kg): 9/10
cause of death (mice; p.o.): respiratory paralysis
Mortality (mice; p.o. 500 mg/kg): 0/5
Mortality (mice; p.o. 600 mg/kg): 2/5
Mortality (mice; p.o. 700 mg/kg): 5/5
LD50 at 336 h (in vivo; ip): 170 mg/kg
LD50 at 336 h (in vivo; po): 550 to 650 mg/kg
Complete survival, animals ([1]; 1 mg/kg i.v.): 7/8
Complete survival, percent ([1]; 1 mg/kg i.v.): 87.5%
protection from arrhythmogenic effects of ligation and reperfusion (in words) ([1]; 1 mg/kg, versus d-sotalol 3 mg/kg): protected from the arrhythmogenic effects of ligation and reperfusion of the coronary artery to a higher degree than a dose of 3 mg/kg of d-sotalol
ES (extrasystole) ([1]; occlusion, 1 mg/kg i.v.): 36.6 ± 84.1
VF (ventricular fibrillation), animals ([1]; occlusion, 1 mg/kg i.v.): 1/8
VF (ventricular fibrillation), percent ([1]; occlusion, 1 mg/kg i.v.): 12.5%
VT (ventricular tachycardia), animals ([1]; occlusion, 1 mg/kg i.v.): 1/8
VT (ventricular tachycardia), percent ([1]; occlusion, 1 mg/kg i.v.): 12.5%
VF (ventricular fibrillation), animals ([1]; reperfusion, 1 mg/kg i.v.): 0/7
VF (ventricular fibrillation), percent ([1]; reperfusion, 1 mg/kg i.v.): 0%
APA (amplitude of the action potential) ([2]; 5 μM): 106 mV
APD50 (time of 50% repolarization) ([2]; 5 μM): 210 ms
APD90 (time of 90% repolarization) ([2]; 5 μM): 261 ms
RP (resting potential) ([2]; 5 μM): -85 mV
Recovery Ampl ([2]; 5 μM): 83.6 V/s
Recovery Ampl/Plateau ([2]; 5 μM): 0.35
Recovery Plateau ([2]; 5 μM): 245.5 V/s
Vmax (maximum rate of depolarization) ([2]; 5 μM): 203 V/s
difference between the effects of Example 15 and its enantiomers (in words) ([2]; 5 μM): No essential difference could be observed
Trecovery (recovery time constant of Vmax) ([2]; 5 μM, Gy: kinetics of rapid restoration): 270.1 ms
effect on APD in ventricular muscle (in words) ([2]; 5 μM, ventricular muscle of the dog): prolonged APD in the ventricular muscle of the dog
APA [2, 6]: 106.3 ± 2.0 mV
APD50 [2, 6]: 209.5 ± 7.1 ms
APD90 [2, 6]: 260.5 ± 6.5 mS
RP [2, 6]: -84.5 ± 1.3 mV
Vmax [2, 6]: 203.0 ± 11.4 V/s
Vmax time of recovery T [2, 6]: 270.1 ± 14.4 ms
Vmax time of recovery amplitude [2, 6]: 83.6 ± 13.5 V/s
Vmax time of recovery amplitude, percentage in parentheses [2, 6]: 35 ± 5%
Vmax time of recovery plateau phase [2, 6]: 245.5 ± 28.0 V/s
effect on duration of the action potential (in words) ([2]; concentrations of Table 2): simultaneous prolongation of duration of the action potential (APD)
effect on Vmax (in words) ([2]; rapid recovery kinetics, concentrations of Table 2): mexiletine-like inhibition of Vmax
activation at 2 µM [3, 7]: 11.6%
activation at 2 µM [3, 8]: 11.1%
activation at 2 µM [3, 9]: 13.6%
activation at 2 µM [3, 10]: 13.4%
activation at 10 µM [3, 7]: 22.8%
activation at 10 µM [3, 8]: 42%
activation at 10 µM [3, 9]: 31.3%
activation at 10 µM [3, 10]: 73.8%
effect on effective refractory period (in words) ([3]; concentrations of Table 1): simultaneous prolongation of the effective refractory period (ERP)
effect on impulse conduction (in words) ([3]; concentrations of Table 1): significantly prolonged the time of impulse conduction in a frequency-dependent manner
antiarrhythmic effect against reperfusion arrhythmias (in words) [4]: strong antiarrhythmic effect
effect on APD on Purkinje's fibres (in words) ([5]; 2 μM and 5 μM): abbreviated APD on Purkinje's fibres of the dog
APA (amplitude of the action potential) ([5]; 2 μM, N 3): 112.7 ± 3.9 mV
APD50 (time of 50% repolarization) ([5]; 2 μM, N 3): 180.7 ± 14.8 ms
APD90 (time of 90% repolarization) ([5]; 2 μM, N 3): 400.0 ± 47.4 ms
MDP (maximal diastolic potential) ([5]; 2 μM, N 3): -81.7 ± 2.4 mV
Vmax (maximum rate of depolarization) ([5]; 2 μM, N 3): 392.3 ± 23.7 V/s
APA ([5]; 5 μM, 1 Hz, N = 6): 111.0 ± 2.4 mV
APD50 ([5]; 5 μM, 1 Hz, N = 6): 121.3 ms
APD90 ([5]; 5 μM, 1 Hz, N = 6): 279.0 mS
RP ([5]; 5 μM, 1 Hz, N = 6): -86.0 ± 2.0 mV
Vmax ([5]; 5 μM, 1 Hz, N = 6): 439.3 V/s
